Source: ChEMBL document CHEMBL1132871, “Antimycobacterial activity of ionic fullerene derivatives” (Bioorg Med Chem Lett, 2000)

Test system: Mycobacterium tuberculosis
Experiment: The compound was tested for its ability to inhibit the growth of Mycobacterium tuberculosis strain H6/99; Resistant
Type: functional, organism-based

| Structure (SMILES) | MIC |
| --- | --- |
| NNC(=O)c1ccncc1 | Resistant |
| CO[C@H]1/C=C/O[C@@]2(C)Oc3c(C)c(O)c4c(O)c(c(/C=N/N5CCN(C)CC5)c(O)c4c3C2=O)NC(=O)/C(C)=C\C=C\[C@H](C)[C@H](O)[C@@H](C)[C@@H](O)[C@@H](C)[C@H](OC(C)=O)[C@@H]1C | Resistant |
